# From paper PMC7161708 (Acta Pharmaceutica Sinica. B, 2019)
# “And” between values parts separate entries of the source, which are not always exact repeats. Equal entries are not always repeated. Where two headings read alike, the source gives them in different places.
# Experiments:
# [1] = tested on: phosphorylation of p70S6K; experiment: Inhibition of p70S6K phosphorylation, α-screen assay in SH-SY5Y cell; format: cell-based; conditions: mean ± SD (n ≥ 3)
# [2] = tested on: BV2 cells; experiment: Cell viability assay, BV2 cells; format: cell-based; conditions: 24 h; for Cytotoxicity on BV2 cells: 2, 5, 10, 20, 40 μmol/L; for Cell viability of BV2 cells at high concentration: 80, 160 μmol/L
# [3] = tested on: SH-SY5Y cells; experiment: Cell viability assay; format: cell-based; conditions: 24 h
# [4] = tested on: phosphorylation of AKT, mTOR, p70S6K and ULK1; experiment: Western blot of AKT/mTOR/ULK1 signaling pathway in BV2 cells; format: cell-based; conditions: 20, 10, 5 μmol/L, 24 h
# [5] = tested on: LC3 II, Beclin 1 and p62; experiment: Western blot of autophagy marker proteins in BV2 cells; format: cell-based; conditions: 24 h
# [6] = tested on: autophagy in BV2 cells; experiment: Autophagic flux assay; format: cell-based; conditions: 20 μmol/L, 24 h, compared with the control group
# [7] = tested on: Aβ1−40 and Aβ1−42; experiment: Aβ clearance ELISA assay in BV2 cell; format: cell-based; conditions: 5, 10 and 20 μmol/L, 24 h, then 2 μg/mL soluble Aβ for 3 h
# [8] = tested on: phosphorylation of tau protein; experiment: Tau phosphorylation Western blot in SH-SY5Y cell; format: cell-based; conditions: 5, 10 and 20 μmol/L, 24 h
# [9] = tested on: APP/PS1 transgenic AD model mice; experiment: Morris Water Maze assay in APP/PS1 transgenic mice; format: in vivo; conditions: 100 days, compared with TV group
# [10] = tested on: APP/PS1 transgenic AD model mice; experiment: Nesting test in APP/PS1 transgenic mice; format: in vivo; conditions: 30 mg/kg orally, 100 days, compared with TV group
# [11] = tested on: Aβ40/42; experiment: Aβ40/42 level in brain of APP/PS1 transgenic mice, ELISA; format: in vivo; conditions: oral, 100 days, compared with TV group
# [12] = tested on: p70S6K and tau phosphorylation; format: in vivo; conditions: APP/PS1 transgenic mice
# [13] = from PAMPA–BBB Pe
# [14] = in vitro; conditions: PAMPA
# [15] = target: hERG potassium channels (Homo sapiens, UniProt Q12809); experiment: hERG inhibition patch clamp assay
# hERG potassium channels, sequence (Q12809 whole entry): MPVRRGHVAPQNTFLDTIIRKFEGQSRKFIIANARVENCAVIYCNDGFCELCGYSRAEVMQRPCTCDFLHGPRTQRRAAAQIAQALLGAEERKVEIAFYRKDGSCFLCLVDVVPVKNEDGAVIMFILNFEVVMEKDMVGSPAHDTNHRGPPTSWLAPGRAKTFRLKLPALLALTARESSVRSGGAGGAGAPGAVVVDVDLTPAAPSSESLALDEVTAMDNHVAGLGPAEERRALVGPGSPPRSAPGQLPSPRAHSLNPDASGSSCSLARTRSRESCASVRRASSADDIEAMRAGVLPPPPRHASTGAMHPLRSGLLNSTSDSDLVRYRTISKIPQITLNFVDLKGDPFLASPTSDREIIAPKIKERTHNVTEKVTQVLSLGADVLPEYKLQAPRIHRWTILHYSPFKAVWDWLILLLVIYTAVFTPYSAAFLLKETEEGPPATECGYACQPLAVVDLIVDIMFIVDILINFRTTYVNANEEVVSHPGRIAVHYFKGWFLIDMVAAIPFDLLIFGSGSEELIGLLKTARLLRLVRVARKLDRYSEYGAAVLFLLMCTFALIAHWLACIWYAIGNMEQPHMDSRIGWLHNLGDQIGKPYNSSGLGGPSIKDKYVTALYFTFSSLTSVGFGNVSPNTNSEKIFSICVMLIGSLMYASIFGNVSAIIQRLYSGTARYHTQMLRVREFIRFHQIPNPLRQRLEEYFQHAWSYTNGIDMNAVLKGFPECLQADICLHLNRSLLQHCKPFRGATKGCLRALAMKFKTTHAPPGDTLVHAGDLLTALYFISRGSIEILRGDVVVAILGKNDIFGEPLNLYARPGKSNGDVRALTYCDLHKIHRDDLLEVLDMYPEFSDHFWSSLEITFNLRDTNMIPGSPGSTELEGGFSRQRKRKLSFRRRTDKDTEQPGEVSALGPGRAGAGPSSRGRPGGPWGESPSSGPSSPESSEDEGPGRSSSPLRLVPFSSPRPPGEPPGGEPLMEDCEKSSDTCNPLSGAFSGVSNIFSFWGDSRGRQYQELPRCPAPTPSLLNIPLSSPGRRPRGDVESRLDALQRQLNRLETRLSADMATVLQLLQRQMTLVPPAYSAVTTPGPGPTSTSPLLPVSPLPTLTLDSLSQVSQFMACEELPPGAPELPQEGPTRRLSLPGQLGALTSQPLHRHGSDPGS
structure (smiles),measurement,setting,value
"CC(=O)Oc1cccc(C(=O)Nc2ncc(N3CCOCC3)s2)c1 [Compound 22, 3-Acetyloxy-N-(5-morpholinothiazol-2-yl)benzamide]",Inhibition ratio of p70S6K phosphorylation at 20 μmol/L (%),[1],88.95% and 88.95±0.78%
same,Cytotoxicity on BV2 cells,[2],no cytotoxicity
same,Cell viability of BV2 cells at high concentration,[2],decreased
same,Cytotoxicity on SH-SY5Y cells,[3],low cytotoxicity
same,"Phosphorylation of AKT, mTOR, p70S6K (Western blot)",[4],"dose-dependently suppressed the phosphorylation of AKT, mTOR, p70S6K"
same,ULK1 phosphorylation at Ser 757 (Western blot),[4],decreased ULK1 phosphorylation at Ser 757
same,"Protein levels of Beclin 1, LC3 II and p62 (Western blot)",[5],"upregulate the protein levels of Beclin 1 and LC3 II, and decrease the p62 protein level"
same,Numbers of yellow and red mTagRFP-mWasabi-LC3 puncta,[6],increased the numbers of both yellow and red puncta
same,Aβ1−40 and Aβ1−42 content in the cell (ELISA),[7],dose-dependently decreased both Aβ1−40 and Aβ1−42 content
same,"Tau phosphorylation at Ser199, 396 and Tyr231 (Western blot)",[8],dose-dependently inhibited tau phosphorylation
same,Escape latencies in MWM assay,[9]; 10 mg/kg orally,significantly reduced the escape latencies
same,Crossing times in MWM probe trial,[9]; 30 mg/kg orally,significantly increased the crossing times
same,Escape latencies in MWM assay,[9]; 30 mg/kg orally,significantly reduced the escape latencies
same,Nesting test,[10],obvious improvement in nesting test
same,Aβ40/42 level in cerebral cortex and hippocampus (ELISA),[11],significantly reduced Aβ40/42 level
same,p70S6K phosphorylation level in the cortex (Western blot),[12]; 10 mg/kg,significantly reduce the p70S6K phosphorylation level
same,p70S6K phosphorylation level in the cortex (Western blot),[12]; 30 mg/kg,significantly reduce the p70S6K phosphorylation level
same,Prediction of BBB penetration,[13],CNS+ (Compounds with permeabilities Pe > 3.08 × 10^−6 cm/s could cross the BBB by passive diffusion (CNS+))
same,"Papp at 10 h, 100 μg/mL",[14],6.02 ± 0.27 ×10⁻⁶ cm/s
same,IC50,[15],> 40 µM
"O=C(Nc1ncc(N2CCOCC2)s1)c1cccs1 [Compound 33, N-(5-Morpholinothiazol-2-yl)thiophene-2-carboxamide]",Inhibition ratio of p70S6K phosphorylation at 20 μmol/L (%),[1],79.80±5.03%
same,Prediction of BBB penetration,[13],CNS+ (Compounds with permeabilities Pe > 3.08 × 10^−6 cm/s could cross the BBB by passive diffusion (CNS+))
same,"Papp at 10 h, 100 μg/mL",[14],10.4 ± 1.25 ×10⁻⁶ cm/s
"CC(=O)Oc1ccc(C(=O)Nc2ncc(N3CCOCC3)s2)cc1 [Compound 23, 4-Acetyloxy-N-(5-morpholinothiazol-2-yl)benzamide]",Inhibition ratio of p70S6K phosphorylation at 20 μmol/L (%),[1],84.96±0.98%
same,Prediction of BBB penetration,[13],CNS+ (Compounds with permeabilities Pe > 3.08 × 10^−6 cm/s could cross the BBB by passive diffusion (CNS+))
same,"Papp at 10 h, 100 μg/mL",[14],4.92 ± 0.31 ×10⁻⁶ cm/s
"CC(=O)Oc1ccccc1C(=O)Nc1ncc([N+](=O)[O-])s1 [NTZ, nitazoxanide, reference compound]",Escape latencies in MWM assay,[9]; 30 mg/kg orally,significantly shortened the escape latencies
same,Nesting test,[10],obvious improvement in nesting test
same,"Papp at 10 h, 100 μg/mL",[14],1.26 ± 0.21 ×10⁻⁶ cm/s
"Cc1ccsc1C(=O)Nc1ncc(N2CCOCC2)s1 [Compound 38, 3-Methyl-N-(5-morpholinothiazol-2-yl)thiophene-2-carboxamide]",Inhibition ratio of p70S6K phosphorylation at 20 μmol/L (%),[1],80.32±0.71%
same,Prediction of BBB penetration,[13],CNS+ (Compounds with permeabilities Pe > 3.08 × 10^−6 cm/s could cross the BBB by passive diffusion (CNS+))
same,"Papp at 10 h, 100 μg/mL",[14],9.88 ± 0.75 ×10⁻⁶ cm/s
"CC(=O)Oc1ccccc1C(=O)Nc1ncc(N2CCOCC2)s1 [Compound 12, 2-Acetyloxy-N-(5-morpholinothiazol-2-yl)benzamide]",Inhibition ratio of p70S6K phosphorylation at 20 μmol/L (%),[1],85.20% and 85.20±1.76%
same,Concentration at which viability of BV2 cells began to decrease,[2],20 µmol/L
same,Concentration at which viability of SH-SY5Y cells decreased,[3],5 µmol/L
same,Prediction of BBB penetration,[13],CNS+ (Compounds with permeabilities Pe > 3.08 × 10^−6 cm/s could cross the BBB by passive diffusion (CNS+))
same,"Papp at 10 h, 100 μg/mL",[14],5.76 ± 0.57 ×10⁻⁶ cm/s
"O=C(CCc1ccccc1)Nc1ncc(N2CCOCC2)s1 [Compound 52, N-(5-Morpholinothiazol-2-yl)-3-phenylpropanamide]",Inhibition ratio of p70S6K phosphorylation at 20 μmol/L (%),[1],81.60±1.86%
same,Prediction of BBB penetration,[13],CNS+ (Compounds with permeabilities Pe > 3.08 × 10^−6 cm/s could cross the BBB by passive diffusion (CNS+))
same,"Papp at 10 h, 100 μg/mL",[14],10.5 ± 1.13 ×10⁻⁶ cm/s
"O=C(Nc1ncc(N2CCOCC2)s1)c1ccc2ccccc2c1 [Compound 31, N-(5-Morpholinothiazol-2-yl)-2-naphthamide]",Inhibition ratio of p70S6K phosphorylation at 20 μmol/L (%),[1],80.96±1.60%
same,Prediction of BBB penetration,[13],CNS+ (Compounds with permeabilities Pe > 3.08 × 10^−6 cm/s could cross the BBB by passive diffusion (CNS+))
same,"Papp at 10 h, 100 μg/mL",[14],3.42 ± 0.07 ×10⁻⁶ cm/s
"O=C(Nc1ncc(N2CCOCC2)s1)c1ccc(Cl)s1 [Compound 36, 5-Chloro-N-(5-morpholinothiazol-2-yl)thiophene-2-carboxamide]",Inhibition ratio of p70S6K phosphorylation at 20 μmol/L (%),[1],83.32±0.41%
same,Cytotoxicity on BV2 cells,[2],no cytotoxicity
same,Cell viability of BV2 cells at high concentration,[2],decreased
same,Cytotoxicity on SH-SY5Y cells,[3],low cytotoxicity
same,"Phosphorylation of AKT, mTOR, p70S6K (Western blot)",[4],"effectively inhibit the phosphorylation of AKT, mTOR, and p70S6K"
same,ULK1 phosphorylation at Ser 757 (Western blot),[4],no effect on the ULK1 phosphorylation
same,"Protein levels of Beclin 1, LC3 II and p62 (Western blot)",[5],"upregulate the protein levels of Beclin 1 and LC3 II, and decrease the p62 protein level"
same,Numbers of yellow and red mTagRFP-mWasabi-LC3 puncta,[6],increased the numbers of both yellow and red puncta
same,Prediction of BBB penetration,[13],CNS+ (Compounds with permeabilities Pe > 3.08 × 10^−6 cm/s could cross the BBB by passive diffusion (CNS+))
same,"Papp at 10 h, 100 μg/mL",[14],10.62 ± 0.1 ×10⁻⁶ cm/s
